The results in this text go back to ChEMBL document CHEMBL1201862, “PubChem BioAssay data set” (2004).

Activity calls are given as the source filed them.

The test system of one assay is HeLa. Description: ATP-based viability loss in HeLa cells – cell-based, CellTiter-Glo luminescence, cherry-pick samples, cytotoxicity control for MITF activator project, dose response (AID 540259). The format is functional. The note with it: Homo sapiens.
The next assay relates to HEK293. Description: cells. The settings on record: Homo sapiens. In kind it is functional, cell-based.
In assay [1] the target is T1, Nuclear receptor subfamily 0 group B member 1 (Homo sapiens, UniProt P51843).
T1 sequence (P51843 whole entry): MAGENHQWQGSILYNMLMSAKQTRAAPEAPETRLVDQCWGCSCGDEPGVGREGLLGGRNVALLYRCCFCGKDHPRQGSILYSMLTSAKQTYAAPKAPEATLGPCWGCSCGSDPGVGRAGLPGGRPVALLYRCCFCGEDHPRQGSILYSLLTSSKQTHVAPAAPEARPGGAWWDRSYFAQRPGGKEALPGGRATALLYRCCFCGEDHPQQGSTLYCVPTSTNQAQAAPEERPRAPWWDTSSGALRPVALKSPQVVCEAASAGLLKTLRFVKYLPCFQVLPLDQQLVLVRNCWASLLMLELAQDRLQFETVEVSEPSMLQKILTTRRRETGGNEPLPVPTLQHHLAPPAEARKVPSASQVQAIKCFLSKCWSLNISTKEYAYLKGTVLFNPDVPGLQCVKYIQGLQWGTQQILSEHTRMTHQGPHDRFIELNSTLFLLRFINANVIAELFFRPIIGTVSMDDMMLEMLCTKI
Description: Luminescence-based cell-based high throughput dose response assay for inhibitors of the orphan nuclear receptor subfamily 0, group B, member 1 (DAX1; NR0B1). [Related pubchem assays (depositor defined):AID504766, AID504790]. In kind it is functional.

Assay [2] in a line: luciferase reporter signal suppression in cells – H4 neuroglioma cells, luminescence, dose response (AID 1990). In kind it is functional, cell-based.
Assay [3] deals with BJ. Description: BJ-TERT fibroblast viability loss – cell-based, RAS-independent, luminescence, dose response (AID 1933). The settings on record: Homo sapiens. The format is functional.
Assay [4] can be described thus: Luminescence Cell-Based Dose Response HTS to Identify Inhibitors of 5'UTR Stem-Loop Driven Prion Protein mRNA Translation in H4 Neuroglioblastoma Cells. [Related pubchem assays: 1827 (Project Summary), 1813 (Primary HTS)]. In kind it is functional.
Assay [5] is described as follows: alpha-synuclein stem-loop luciferase translation blockers – H4 neuroglioma cells, luminescence, confirmation (AID 1988). The format is functional, cell-based.
The subject of assay [6] is BJ. Description: cells. The format is functional, cell-based. The note with it: Homo sapiens.
The subject of assay [7] is BJ. Description: BJ-TERT-LT-ST fibroblast viability loss – cell-based, RAS-independent, luminescence, dose response (AID 1935).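 Further: BJ fibroblasts immortalized with TERT plus LT and ST oncogenes.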 The format is functional. The note with it: Homo sapiens.
Assay [8] in a line: DRD fibroblast viability loss – cell-based, non-viral oncogenic, luminescence, dose response (AID 1934). The format is functional. The settings on record: Homo sapiens.
For assay [9], the system named is BJ. Description: growth inhibition of engineered Ras-driven BJ cells – cell-based, alamar blue fluorescence, cherrypicked samples, dose response (AID 2631).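 Further: confirmatory dose-response assay in RAS-dependent BJ fibroblasts engineered with TERT, LT and ST, with cytotoxicity read by fluorescence.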 The format is functional. The note with it: Homo sapiens.
The target in assay [10] is Voltage-gated inwardly rectifying potassium channel KCNH2 (Homo sapiens, UniProt Q12809). The note with it: Potency.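 Further: confirmatory quantitative high-throughput screen measuring inhibition of hERG channel activity.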
Assay [11] in a line: Luminescence Cell-Based Dose Confirmation HTS to Identify Activators of 5'UTR Stem-Loop Driven Alpha-Synuclein mRNA Translation in H4 Neuroglioblastoma Cells. [Related pubchem assays: 1829 (Project Summary), 1814 (Primary HTS)]. The format is functional.
Assay [12] is described as follows: Luminescence Cell-Based Dose Response HTS to Identify Activators of Luciferase Translation or Activity in H4 […] Cells. [Related pubchem assays: 1829 (Project Summary), 1814 (Primary HTS)]. The format is functional.
For a further assay, the system named is H4. Description: Luminescence Cell-Based Dose Response HTS to Identify Activators of 5'UTR Stem-Loop Driven Prion Protein mRNA Translation in H4 Neuroglioblastoma Cells. [Related pubchem assays: 1829 (Project Summary), 1814 (Primary HTS)]. The format is functional. The note with it: Homo sapiens.
Assay [13] has as its target Voltage-dependent T-type calcium channel subunit alpha-1H (Homo sapiens, UniProt O95180). In kind it is functional.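 Further: channel activity triggered by adding a high calcium stimulation buffer.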
For another assay, the target named is T2, Caspase-3 (Homo sapiens, UniProt P42574).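 Further: Dose-response selectivity test against caspase-3 for candidate inhibitors of sentrin-specific proteases (SENPs).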
T2 sequence (P42574 whole entry): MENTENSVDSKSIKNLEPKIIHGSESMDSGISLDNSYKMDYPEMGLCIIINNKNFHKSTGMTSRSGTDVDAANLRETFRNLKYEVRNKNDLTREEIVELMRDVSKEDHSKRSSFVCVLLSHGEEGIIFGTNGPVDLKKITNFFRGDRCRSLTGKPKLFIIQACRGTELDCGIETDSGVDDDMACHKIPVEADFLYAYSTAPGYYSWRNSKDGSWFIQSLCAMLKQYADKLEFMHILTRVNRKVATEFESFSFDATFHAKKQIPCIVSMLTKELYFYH
In kind it is functional.

Assay [14] deals with T3, Sentrin-specific protease 7 (Homo sapiens, UniProt Q9BQF6).
T3 sequence (Q9BQF6 whole entry): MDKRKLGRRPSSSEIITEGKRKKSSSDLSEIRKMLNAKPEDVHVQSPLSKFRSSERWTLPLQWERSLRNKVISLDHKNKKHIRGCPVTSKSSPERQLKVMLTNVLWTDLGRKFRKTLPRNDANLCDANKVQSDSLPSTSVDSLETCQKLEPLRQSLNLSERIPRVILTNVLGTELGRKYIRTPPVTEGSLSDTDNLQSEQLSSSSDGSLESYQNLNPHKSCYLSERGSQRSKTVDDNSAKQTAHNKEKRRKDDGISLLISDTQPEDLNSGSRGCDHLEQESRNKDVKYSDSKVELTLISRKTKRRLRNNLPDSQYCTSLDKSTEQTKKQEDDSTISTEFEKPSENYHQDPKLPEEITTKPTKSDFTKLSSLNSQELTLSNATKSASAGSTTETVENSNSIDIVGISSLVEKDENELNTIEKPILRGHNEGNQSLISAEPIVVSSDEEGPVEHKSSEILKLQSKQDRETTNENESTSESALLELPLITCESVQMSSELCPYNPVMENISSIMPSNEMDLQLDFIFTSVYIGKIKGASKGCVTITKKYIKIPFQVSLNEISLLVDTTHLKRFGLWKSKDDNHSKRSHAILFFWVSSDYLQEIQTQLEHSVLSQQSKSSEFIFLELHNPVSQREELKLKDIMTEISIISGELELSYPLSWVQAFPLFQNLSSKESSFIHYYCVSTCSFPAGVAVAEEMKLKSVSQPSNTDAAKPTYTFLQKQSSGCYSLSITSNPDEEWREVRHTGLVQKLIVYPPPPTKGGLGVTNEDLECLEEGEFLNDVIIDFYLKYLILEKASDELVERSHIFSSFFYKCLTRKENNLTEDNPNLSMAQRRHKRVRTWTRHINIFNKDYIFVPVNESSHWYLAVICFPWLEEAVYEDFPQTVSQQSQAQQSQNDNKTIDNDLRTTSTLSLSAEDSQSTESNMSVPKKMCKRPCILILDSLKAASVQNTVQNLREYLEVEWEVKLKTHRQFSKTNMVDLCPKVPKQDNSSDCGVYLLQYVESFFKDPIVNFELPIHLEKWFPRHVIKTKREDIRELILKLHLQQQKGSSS
In kind it is functional.

In assay [15] the target is T4, Sentrin-specific protease 6 (Homo sapiens, UniProt Q9GZR1).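 Further: Luminescence-based dose-response confirmatory assay of SENP6 inhibition, following up an ultra-high-throughput screen.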
T4 sequence (Q9GZR1 whole entry): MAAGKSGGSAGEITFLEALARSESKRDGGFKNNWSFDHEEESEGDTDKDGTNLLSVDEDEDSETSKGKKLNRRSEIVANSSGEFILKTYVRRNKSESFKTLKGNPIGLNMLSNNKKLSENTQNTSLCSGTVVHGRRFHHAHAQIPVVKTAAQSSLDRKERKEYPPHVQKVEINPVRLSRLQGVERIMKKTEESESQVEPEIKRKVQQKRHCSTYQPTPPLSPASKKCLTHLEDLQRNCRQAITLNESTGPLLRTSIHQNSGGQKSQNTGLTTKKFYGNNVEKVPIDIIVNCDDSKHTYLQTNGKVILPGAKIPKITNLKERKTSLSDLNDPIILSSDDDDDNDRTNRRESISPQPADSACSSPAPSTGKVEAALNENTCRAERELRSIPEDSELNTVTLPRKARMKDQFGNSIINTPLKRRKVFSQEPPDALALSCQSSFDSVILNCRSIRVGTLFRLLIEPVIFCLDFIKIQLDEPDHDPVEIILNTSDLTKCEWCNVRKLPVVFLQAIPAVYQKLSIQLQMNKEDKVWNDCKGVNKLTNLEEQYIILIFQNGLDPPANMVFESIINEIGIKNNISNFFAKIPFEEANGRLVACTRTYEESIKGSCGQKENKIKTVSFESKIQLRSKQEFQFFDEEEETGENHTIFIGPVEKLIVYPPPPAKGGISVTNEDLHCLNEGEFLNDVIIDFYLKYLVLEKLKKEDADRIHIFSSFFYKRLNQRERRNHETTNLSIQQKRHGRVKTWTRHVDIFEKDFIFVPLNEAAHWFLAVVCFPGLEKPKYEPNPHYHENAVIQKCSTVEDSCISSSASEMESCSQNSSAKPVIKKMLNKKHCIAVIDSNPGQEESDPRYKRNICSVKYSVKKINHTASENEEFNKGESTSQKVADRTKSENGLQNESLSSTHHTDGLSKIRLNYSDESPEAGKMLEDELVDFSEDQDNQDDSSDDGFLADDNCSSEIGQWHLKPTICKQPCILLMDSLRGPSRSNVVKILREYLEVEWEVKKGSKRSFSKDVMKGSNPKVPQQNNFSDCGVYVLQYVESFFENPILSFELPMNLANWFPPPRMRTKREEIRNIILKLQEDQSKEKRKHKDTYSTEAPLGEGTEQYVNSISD
The format is functional.

Assay [16] has as its target T5, Sentrin-specific protease 8 (Homo sapiens, UniProt Q96LD8).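 Further: luminescence read-out of SENP8 inhibition, dose-response confirmation following an ultra-high-throughput screen.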
T5 sequence (Q96LD8 whole entry): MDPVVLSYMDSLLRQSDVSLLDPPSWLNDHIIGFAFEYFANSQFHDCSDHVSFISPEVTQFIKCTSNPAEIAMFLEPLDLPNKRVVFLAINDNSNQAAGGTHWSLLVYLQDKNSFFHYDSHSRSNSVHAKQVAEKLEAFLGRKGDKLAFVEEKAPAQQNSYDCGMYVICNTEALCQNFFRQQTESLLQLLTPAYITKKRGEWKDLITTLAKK
The format is functional.

Assay [17] concerns the target T6, Serine/threonine-protein kinase D3 (Homo sapiens, UniProt O94806).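 Further: determined within a kinase panel screen, with PRKCN as the panel member.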
T6 sequence (O94806 whole entry): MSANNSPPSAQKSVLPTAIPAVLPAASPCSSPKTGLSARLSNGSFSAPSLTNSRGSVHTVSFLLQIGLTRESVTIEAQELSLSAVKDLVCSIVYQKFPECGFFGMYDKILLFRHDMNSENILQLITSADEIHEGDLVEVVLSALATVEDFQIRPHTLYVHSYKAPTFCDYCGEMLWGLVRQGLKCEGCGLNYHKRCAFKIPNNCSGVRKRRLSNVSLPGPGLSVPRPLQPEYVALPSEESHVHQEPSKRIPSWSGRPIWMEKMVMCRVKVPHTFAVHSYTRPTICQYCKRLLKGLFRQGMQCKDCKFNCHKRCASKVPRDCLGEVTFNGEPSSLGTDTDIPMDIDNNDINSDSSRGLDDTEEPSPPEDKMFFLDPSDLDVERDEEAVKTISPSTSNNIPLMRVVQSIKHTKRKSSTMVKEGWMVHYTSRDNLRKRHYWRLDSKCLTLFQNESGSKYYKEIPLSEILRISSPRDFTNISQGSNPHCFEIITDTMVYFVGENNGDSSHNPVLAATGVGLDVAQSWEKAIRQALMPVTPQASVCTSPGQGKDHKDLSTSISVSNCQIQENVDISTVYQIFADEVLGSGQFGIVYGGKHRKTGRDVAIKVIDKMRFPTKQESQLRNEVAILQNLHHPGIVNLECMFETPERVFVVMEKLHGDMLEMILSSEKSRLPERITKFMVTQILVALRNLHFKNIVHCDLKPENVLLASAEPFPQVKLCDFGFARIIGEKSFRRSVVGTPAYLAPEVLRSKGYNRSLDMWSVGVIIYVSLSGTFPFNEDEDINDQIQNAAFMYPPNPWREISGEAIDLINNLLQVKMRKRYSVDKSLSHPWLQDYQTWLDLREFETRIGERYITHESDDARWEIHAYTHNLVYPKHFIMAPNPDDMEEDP
In kind it is functional.

The target in assay [18] is Hepatocyte growth factor receptor (Homo sapiens, UniProt P08581). The format is functional.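 Further: kinase panel profiling across the kinome, with MET as the panel member.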
Chain of Hepatocyte growth factor receptor (P08581 whole entry): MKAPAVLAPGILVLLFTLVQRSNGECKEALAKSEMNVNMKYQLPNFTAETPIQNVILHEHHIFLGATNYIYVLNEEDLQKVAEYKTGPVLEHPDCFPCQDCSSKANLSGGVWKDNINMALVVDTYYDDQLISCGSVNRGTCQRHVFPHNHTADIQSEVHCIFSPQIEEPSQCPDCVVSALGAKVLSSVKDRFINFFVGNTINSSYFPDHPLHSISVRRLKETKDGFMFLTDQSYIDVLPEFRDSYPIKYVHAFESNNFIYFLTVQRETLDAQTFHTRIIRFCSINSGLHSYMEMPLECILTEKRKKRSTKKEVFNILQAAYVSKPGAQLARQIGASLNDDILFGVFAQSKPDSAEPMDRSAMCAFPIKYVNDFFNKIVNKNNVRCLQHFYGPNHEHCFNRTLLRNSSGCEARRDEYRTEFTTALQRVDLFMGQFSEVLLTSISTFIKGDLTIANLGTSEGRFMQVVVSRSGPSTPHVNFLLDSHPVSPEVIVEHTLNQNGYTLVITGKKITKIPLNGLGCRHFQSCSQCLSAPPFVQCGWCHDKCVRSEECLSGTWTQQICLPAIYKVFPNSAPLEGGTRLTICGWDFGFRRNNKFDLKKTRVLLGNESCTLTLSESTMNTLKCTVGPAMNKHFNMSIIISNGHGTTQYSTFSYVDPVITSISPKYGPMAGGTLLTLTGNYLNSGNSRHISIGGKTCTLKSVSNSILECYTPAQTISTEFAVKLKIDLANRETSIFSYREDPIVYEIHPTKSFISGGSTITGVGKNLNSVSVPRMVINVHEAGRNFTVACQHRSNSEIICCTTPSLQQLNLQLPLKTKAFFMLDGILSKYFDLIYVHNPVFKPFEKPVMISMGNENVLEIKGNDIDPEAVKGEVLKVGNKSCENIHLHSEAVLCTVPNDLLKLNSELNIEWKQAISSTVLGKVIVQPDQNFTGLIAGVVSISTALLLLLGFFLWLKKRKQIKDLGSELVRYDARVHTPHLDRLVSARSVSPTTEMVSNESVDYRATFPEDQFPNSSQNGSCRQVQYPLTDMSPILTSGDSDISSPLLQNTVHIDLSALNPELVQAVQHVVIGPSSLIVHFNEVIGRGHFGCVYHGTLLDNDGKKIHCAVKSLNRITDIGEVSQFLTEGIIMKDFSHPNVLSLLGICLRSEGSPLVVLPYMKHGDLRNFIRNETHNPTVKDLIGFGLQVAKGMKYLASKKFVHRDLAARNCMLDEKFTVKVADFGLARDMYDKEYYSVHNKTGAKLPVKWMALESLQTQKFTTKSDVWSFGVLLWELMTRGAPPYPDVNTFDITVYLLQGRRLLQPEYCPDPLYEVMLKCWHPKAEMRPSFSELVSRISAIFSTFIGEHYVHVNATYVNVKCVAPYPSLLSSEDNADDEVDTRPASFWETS

Chain of Voltage-gated inwardly rectifying potassium channel KCNH2 (Q12809 whole entry): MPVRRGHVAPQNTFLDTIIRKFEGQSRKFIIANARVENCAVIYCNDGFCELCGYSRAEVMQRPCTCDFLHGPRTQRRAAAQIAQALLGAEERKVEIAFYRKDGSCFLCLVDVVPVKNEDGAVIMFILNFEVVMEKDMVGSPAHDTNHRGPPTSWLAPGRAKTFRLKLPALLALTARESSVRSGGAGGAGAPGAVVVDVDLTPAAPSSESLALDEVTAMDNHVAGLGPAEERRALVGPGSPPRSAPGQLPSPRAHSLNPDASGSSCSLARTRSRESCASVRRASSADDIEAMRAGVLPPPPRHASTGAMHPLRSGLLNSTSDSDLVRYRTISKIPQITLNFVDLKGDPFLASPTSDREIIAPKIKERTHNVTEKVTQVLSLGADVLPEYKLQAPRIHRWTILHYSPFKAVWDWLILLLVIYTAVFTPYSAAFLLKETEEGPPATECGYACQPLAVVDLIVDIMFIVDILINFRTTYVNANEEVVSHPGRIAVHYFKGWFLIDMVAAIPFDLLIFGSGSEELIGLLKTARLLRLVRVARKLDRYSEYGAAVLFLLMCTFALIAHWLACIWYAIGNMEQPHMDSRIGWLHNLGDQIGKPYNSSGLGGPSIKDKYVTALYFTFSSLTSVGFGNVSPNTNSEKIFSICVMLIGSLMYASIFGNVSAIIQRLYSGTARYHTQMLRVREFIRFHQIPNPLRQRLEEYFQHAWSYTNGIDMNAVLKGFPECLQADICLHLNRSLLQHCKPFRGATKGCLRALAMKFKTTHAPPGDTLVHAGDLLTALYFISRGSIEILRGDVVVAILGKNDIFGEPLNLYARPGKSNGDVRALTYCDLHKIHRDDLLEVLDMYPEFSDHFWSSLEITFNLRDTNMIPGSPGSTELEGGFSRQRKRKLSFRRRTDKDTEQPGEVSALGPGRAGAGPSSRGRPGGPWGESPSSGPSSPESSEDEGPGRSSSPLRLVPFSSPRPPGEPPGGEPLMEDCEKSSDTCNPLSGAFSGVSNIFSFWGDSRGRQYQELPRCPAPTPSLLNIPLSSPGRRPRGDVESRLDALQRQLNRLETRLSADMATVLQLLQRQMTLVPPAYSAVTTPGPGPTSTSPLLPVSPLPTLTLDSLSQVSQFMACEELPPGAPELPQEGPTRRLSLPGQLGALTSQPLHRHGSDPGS
Chain of Voltage-dependent T-type calcium channel subunit alpha-1H (O95180 whole entry): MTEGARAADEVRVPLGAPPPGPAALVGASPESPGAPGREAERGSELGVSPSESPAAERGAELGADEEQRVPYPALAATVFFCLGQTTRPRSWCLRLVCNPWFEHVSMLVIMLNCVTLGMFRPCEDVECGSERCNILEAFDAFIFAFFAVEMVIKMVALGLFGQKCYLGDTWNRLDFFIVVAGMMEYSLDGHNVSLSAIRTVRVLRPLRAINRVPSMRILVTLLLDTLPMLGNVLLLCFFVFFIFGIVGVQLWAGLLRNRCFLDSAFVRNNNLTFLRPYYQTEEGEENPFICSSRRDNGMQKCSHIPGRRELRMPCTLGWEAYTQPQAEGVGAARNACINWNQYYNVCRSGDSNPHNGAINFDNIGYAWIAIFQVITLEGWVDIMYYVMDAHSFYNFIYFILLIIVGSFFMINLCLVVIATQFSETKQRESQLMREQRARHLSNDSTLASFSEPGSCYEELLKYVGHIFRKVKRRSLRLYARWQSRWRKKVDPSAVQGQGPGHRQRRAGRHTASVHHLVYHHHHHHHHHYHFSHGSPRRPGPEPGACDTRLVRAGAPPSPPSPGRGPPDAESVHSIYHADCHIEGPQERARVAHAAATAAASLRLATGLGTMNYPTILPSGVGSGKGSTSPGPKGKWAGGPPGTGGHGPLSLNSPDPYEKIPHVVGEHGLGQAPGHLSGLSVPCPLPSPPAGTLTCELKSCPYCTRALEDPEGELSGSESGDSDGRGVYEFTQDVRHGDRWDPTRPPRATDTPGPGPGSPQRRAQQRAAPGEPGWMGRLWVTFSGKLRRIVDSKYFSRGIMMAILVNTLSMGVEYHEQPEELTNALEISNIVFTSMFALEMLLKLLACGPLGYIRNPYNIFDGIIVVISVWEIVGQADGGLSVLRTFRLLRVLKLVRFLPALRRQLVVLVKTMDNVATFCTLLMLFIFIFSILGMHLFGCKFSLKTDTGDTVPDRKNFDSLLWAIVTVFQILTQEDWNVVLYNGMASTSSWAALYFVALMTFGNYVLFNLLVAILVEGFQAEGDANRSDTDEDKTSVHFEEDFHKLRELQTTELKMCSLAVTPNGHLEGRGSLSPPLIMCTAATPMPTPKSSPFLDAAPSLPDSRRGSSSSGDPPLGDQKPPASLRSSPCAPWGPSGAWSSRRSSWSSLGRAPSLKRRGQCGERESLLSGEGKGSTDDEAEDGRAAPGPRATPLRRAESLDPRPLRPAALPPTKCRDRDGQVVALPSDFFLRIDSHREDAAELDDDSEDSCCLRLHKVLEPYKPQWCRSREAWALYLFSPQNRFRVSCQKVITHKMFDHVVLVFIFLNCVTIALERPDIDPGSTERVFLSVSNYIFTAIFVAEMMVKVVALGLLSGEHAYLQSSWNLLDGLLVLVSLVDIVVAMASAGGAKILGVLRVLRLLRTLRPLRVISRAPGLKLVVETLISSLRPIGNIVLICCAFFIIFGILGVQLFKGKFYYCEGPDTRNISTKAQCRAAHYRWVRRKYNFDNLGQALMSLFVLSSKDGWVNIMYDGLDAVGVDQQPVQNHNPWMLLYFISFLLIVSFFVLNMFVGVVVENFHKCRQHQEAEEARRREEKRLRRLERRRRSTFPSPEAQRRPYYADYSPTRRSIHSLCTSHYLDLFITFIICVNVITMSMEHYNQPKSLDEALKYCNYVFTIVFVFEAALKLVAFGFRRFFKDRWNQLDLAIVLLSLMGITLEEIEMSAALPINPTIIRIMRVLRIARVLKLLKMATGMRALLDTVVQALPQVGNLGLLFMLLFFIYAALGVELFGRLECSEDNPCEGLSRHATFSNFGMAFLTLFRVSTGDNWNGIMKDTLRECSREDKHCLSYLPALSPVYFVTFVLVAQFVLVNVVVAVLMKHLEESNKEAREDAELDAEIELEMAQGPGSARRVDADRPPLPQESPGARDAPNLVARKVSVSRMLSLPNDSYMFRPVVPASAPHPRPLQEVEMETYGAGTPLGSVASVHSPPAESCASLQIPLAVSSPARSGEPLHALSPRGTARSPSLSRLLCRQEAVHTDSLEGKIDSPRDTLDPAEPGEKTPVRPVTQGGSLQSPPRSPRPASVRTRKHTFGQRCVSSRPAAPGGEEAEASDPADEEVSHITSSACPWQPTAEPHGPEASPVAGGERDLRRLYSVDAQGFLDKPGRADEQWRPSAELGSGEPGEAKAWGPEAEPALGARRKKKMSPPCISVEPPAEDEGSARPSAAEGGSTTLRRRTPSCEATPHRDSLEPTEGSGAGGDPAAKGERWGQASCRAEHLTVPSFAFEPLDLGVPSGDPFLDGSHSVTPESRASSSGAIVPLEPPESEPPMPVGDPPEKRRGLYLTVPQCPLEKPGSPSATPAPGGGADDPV

For `CCn1c(C)nc2cc(C(=O)N/N=C(\C)c3ccccc3O)ccc21`, the AC50 in the assay with HeLa is 126 µM (active).

For the compound `O=C(CN1C(=O)NC2(CCCC2)C1=O)Nc1ccc(OC(F)(F)F)cc1`, the IC50 (in the assay with HEK293; in assay [1]) was > 67.5 µM (inactive) each time.

`CCCc1cc(O)nc(SCC(=O)c2c(N)n(CC(C)C)c(=O)n(C)c2=O)n1`: the EC50 in assay [2] is 9.13 µM (active); in the assay with BJ [3], > 150 µM (not active); in [4], 18.1 µM (active); in assay [5], 12.1 µM (active); with BJ [6] it was 9.97 µM (inconclusive); in the assay on BJ [7], > 150 µM (not active). Further, the 50% effective concentration (EC50) was 10.7 µM (active) in [8] and > 133 µM (inactive) in the assay with BJ [9].

As to `C=CCN1CC[C@]23CCCCC2[C@H]1Cc1ccc(O)cc13` (stereo partly specified), the AC50 in assay [10] is 2.24 µM (inconclusive).

As for `NC(=S)NCCCC(N)C(=O)O` (stereo unspecified), the AC50 in assay [10] was 35.5 µM (inconclusive).

As to `O=CNC(n1cnc2c(N3CCOCC3)ncnc21)C(Cl)(Cl)Cl` (stereo unspecified), the IC50 (in the assay on HEK293; in assay [1]) was > 67.5 µM (inactive) each time.

As for `Cc1nnc(SCCC(=O)Nc2nc(-c3ccccc3)ns2)s1`, the half-maximal effective concentration (EC50) in [11] was > 120 µM (not active); in assay [12], 15 µM (active); with H4, 8.61 µM (active); in assay [13] it was 2.54 µM (active). The IC50 at Caspase-3 is 44.1 µM (active); in assay [14] it was 13.1 µM (active); in assay [15], 21.9 µM (active); in [16], 24.1 µM (active).

On to `O=C(N/C=C/c1ccccc1)c1ccccc1`, for which the half-maximal activity concentration (AC50) with HeLa was 206 µM (active).

Take `CCCC(=O)Nc1cccc(-c2nc(Nc3ccc4[nH]ncc4c3)c3cc(OCCOC)ccc3n2)c1`: the values for the Ki in assay [17] and in [18] were 1.26 µM (active) and 2.51 µM (active), respectively.
